Bridge positions count the residues as written; N and C are the ends. Peptide text beside a SMILES is read from it.
Experiments:
Type in all cases: cell-based, human
Jurkat cells = assay: Ca2+ release, Fura-2; conditions: CsA, T20K 4 μM, V10K 4 μM
Protocol: FIG. 17. Ca^2+ release in human Jurkat and T-cells. Jurkat cells (A) and T-cells (B) 1×10^6 were loaded with 1 μM Fura-2 and 0.02% Puronic F-127 for 30 minutes at 37° C. Cells were centrifuged for 5 minutes at 1200 rpm and resuspended in media [RPMI 1640 with 10% FCS, penicillin (100 U/mL) and streptomycin ([…])]. 100 μL of cell suspension were transferred to a black 96-well plate with a clear flat-bottom. Briefly before analysis the fluorometer Synergy H4 (BioTek) was tempered to 37° C. The fluorescence time course was then measured with: extinction 340/380 nm and emission 510 nm in 30 seconds intervals, continuously shaking. Ca^2+ influx was initiated by adding compounds to the cells (illustrated by the arrow). To receive maximum Ca^2+ release cells were stimulated with PMA (50 ng/mL) and Ionomycin (500 ng/mL) and T-cells additionally with PHA-L (10 μg/mL). For lowest Ca^2+ levels, cells remained untreated.
Jurkat cells T-cells were treated as described for FIG. 17, supra.

[1] = system: degranulation marker LAMP-1 (CD107a) on activated PBMC; assay: CD107a degranulation analysis; conditions: after 36 h; T20K 4 μM, CsA 5 μg/mL
Protocol: FIG. 16. Degranulation capacity of cyclotide-treated activated human PBMC. […] After 36 hour of cultivation the cells were restimulated with PMA/Ionomycin for 2.5 hours in the presence of a CD107a mAbs and GolgiStop reagent to determine the amount of degranulation by flow cytometry. Representative data are shown in dot plots (A) and in (B) data are presented as mean and standard deviation (SD) of three independent experiments.
Activated cells were grown for 36 h and then treated for re-stimulation with PMA (50 ng/ml) und ionomycin (500 ng/ml) and stained with CD107a PE. After 1 h the reaction was stopped with 2 μl Golgi-Stop (1:10) and incubated for 2.5 h at 37° C. The cells were transferred into a 96-well plate, centrifuged (5 min, 1000 RPM, 20° C.) and washed with 100 μl FACS-buffer. Afterwards, PBMCs were stained with CD8 PE-Cy5 for 15 min at 4° C. and following to wash cycles with FACS-buffer the cells were resuspended in 100 μl, transferred into FACS vials with a total volume of 250 μl and the degranulation was measured by FACS analysis.
After determining the influence of cyclotide treatment on the effector function of PBMCs on the basis of measuring IFN-gamma and TNF-alpha cytokine levels, it is of interest to determine an effect of cyclotides on the degranulation activity. Activation of cytotoxic CD8^+-lymphocytes lead to a release of cytolytic granules, which contain/express lysosomal-associated membrane protein 1 (CD107; LAMP-1). During degranulation, the granule vesicle membranes fuse with the membranes of activated CD8^+-lymphocytes and therefore LAMP-1 can be used as a marker protein for the cytotoxic activity of T-lymphocytes, which can be measured with FACS. After 36 h, 42%±21.4 of the CsA- and 49%±16.8 of the T20K-treated cells contain the degranulation marker LAMP-1 as compared to the control (FIG. 16). This can be interpreted in the way that CsA- and T20K-treated cells have reduced cytotoxicity.

[2] = system: IFN-gamma production of activated PBMCs; assay: IFN-gamma secretion of PBMC, ELISA-based FACS; conditions: for IFN-gamma production as compared to the control, 36 h: 36 h past stimulation
Protocol: FIG. 14. IFN-γ secretion by cyclotide-treated PBMC. […] Untreated cells were used as control. Following 24 h or 36 h of cultivation, the cells were restimulated with PMA/Ionomycin for further 6 hour. The amount of IFN-γ was measured in the supernatant of cultured cells using an ELISA-based flow cytometric method. The data are presented as mean and standard deviation (SD) of three independent experiments.
(§1) Activated cells were resuspended in 50 μl of medium, transferred into a 96-well plate and treated with 10 μg/ml PHA-L. After incubation for 24 h cells were re-stimulated with PMA (50 ng/ml) und ionomycin (500 ng/ml) for 6 h. Next, the cells were transferred into Eppendorf tubes, centrifuged (5 min, 3000 RPM, 20° C.) und 50 μl of the supernatant was again transferred into new tubes and stored at −20° C. Production of cytokines was measured and quantified using the FlowCytomix™ kit according to manufacturer's instructions.
Therefore it is of interest to determine whether cyclotides only have anti-proliferative effects or also affect the effector function of T-lymphocytes, which would directly relate to changes in the IFN-gamma and TNF-alpha production. Therefore, the production of both cytokines of cyclotide-treated, activated PBMCs at an early time point after PBMC activation was tested.

PHA-L-stimulated PBMC = assay: Proliferation of PHA-L-stimulated CFSE-labelled PBMC with or without exogenous IL-2; conditions: cyclotides 4 μM, CsA 5 μg/mL, 3 day culture; for proliferation with exogenous IL-2: IL-2 10 U/mL
Protocol: FIG. 13. Proliferation capacity of cyclotide-treated PBMC in the presence of exogenous IL-2. […] The cells were cultured without exogenous IL-2 (10 U/mL) (A and B) or in the presence of IL-2 (C and D). The CFSE-labelled cells were measured after a 3 day culture period by flow cytometry and representative data are presented in dot plots (A and C). Data are presented as mean and standard deviation (SD) of three independent experiments.
(§2) Following purification, PBMCs were equilibrated for 2 h at 37° C. […] This was followed by washing of each well with 100 μl PBS (centrifugation for 5 min, 1000 rpm, 20° C.) and re-suspending the cells in 100 μl medium for further assays.
Purified PBMCs (5*10^6 cells/ml) were incubated with […] of the fluorescent dye CFSE (5-carbofluoreszenein-ciacetat-succinylester) for 10 min at 37° C. The reaction was stopped using medium, cells were washed one time with medium by centrifugation (10 min, 300×g, 20° C.) and diluted with medium to 4*10^6 cells/ml.

IL-2 release in PBMCs = assay: IL-2 release of PBMC, ELISA-based FACS; conditions: PHA-L 24 h, PMA/ionomycin 6 h; T20K 4 μM, CsA 5 μg/mL
Protocol: as §2, §1
To analyze the mechanism of cyclotide-mediated anti-proliferation of T-lymphocytes, their effect on the direct release of IL-2 in PBMCs was determined. The cells were treated with a cyclotide and activated with PHA-L. After 24 h the cells were re-stimulated with PMA and ionomycin and the IL-2 concentration in the supernatant (released IL-2) was measured with an ELISA-based FACS methodology (FIG. 12A).

Row | Molecule | Ca2+ signaling in Jurkat cells (Jurkat cells) | cells containing the degranulation marker LAMP-1 as compared to the control [1] | IFN-gamma concentration as compared to the control, 24 h ([2]; 24 h + 6 h PMA/ionomycin, T20K 4 μM, CsA 5 μg/mL) | IFN-gamma production as compared to the control, 36 h [2] | proliferation with exogenous IL-2 (PHA-L-stimulated PBMC) | proliferation as compared to the control cells, without exogenous IL-2 (PHA-L-stimulated PBMC) | IL-2 release as compared to the control cells (IL-2 release in PBMCs)
1 | CC(C)C[C@@H]1NC(=O)CNC(=O)[C@H](CC(N)=O)NC(=O)[C@H](CCCNC(=N)N)NC(=O)[C@H]([C@@H](C)O)NC(=O)[C@@H]2CSSC[C@@H]3NC(=O)[C@H]([C@@H](C)O)NC(=O)CNC(=O)CNC(=O)[C@H](C(C)C)NC(=O)[C@@H]4CSSC[C@H](NC(=O)[C@H](CCCCN)NC(=O)[C@H](CSSC[C@H](NC(=O)[C@H](C(C)C)NC(=O)[C@@H]5CCCN5C1=O)C(=O)NCC(=O)N[C@@H](CCC(=O)O)C(=O)N[C@@H]([C@@H](C)O)C(=O)N4)NC(=O)CNC(=O)[C@@H]1CCCN1C(=O)[C@H]([C@@H](C)O)NC(=O)[C@H](CC(N)=O)NC3=O)C(=O)N[C@@H](CO)C(=O)N[C@@H](Cc1c[nH]c3ccccc13)C(=O)N1CCC[C@H]1C(=O)N[C@@H](C(C)C)C(=O)N2 [Kalata T20K] (cyclo(CGETCVGGTCNTPGCKCSWPVCTRNGLPV); disulfide 1-15, 5-17, 10-22 (inferred); ring closure inferred) | did not induce a change in Ca^2+ signaling | 49%±16.8 | 21%±13.2 | did not induce significant changes in the level of IFN-gamma | 91%±1.4 | 29%±24 | 24%±18.6
2 | kalata B1 mutant GLPVCGETCKGGTCNTPGCTCSWPVCTRN (SEQ ID No. 10) [Kalata V10K] | did not induce a change in Ca^2+ signaling | no influence on the degranulation activity |  | did not induce significant changes in the level of IFN-gamma | did not change the effect on proliferation | no effect on the proliferation | no effect on the release of IL-2

— US10357537B2, “Cyclotides as immunosuppressive agents” (priority 2011, dated 2019)
